The source of these data is patent US20070219266A1, “N-Acylated-3-(Benzoyl)-Pyrrolidines as 11-Beta-HSD1 Inhibitors Useful for the Treatment of Metabolic Disorders” (priority 2003, published 2007).

The target in the experiment is T1, human 11βHSD1 (Homo sapiens, UniProt P28845).
T1 construct: stably transfected with a construct containing full-length human 11βHSD1 enzyme (in pCMVHyg); expressed in transfected cells
Kind of experiment: HeLa GRE4-βGal/11βHSD1 cell reporter assay (cortisone to cortisol conversion, β-galactosidase readout). It is filed as cell-based. The settings on record: HeLa GRE4-βGal/11βHSD1 cells, cortisone 1 μM, overnight incubation, absorbance at 570 nm. From the text: HeLa cells (human cervical carcinoma derived cells) were stably transfected with a construct containing four copies of the glucocorticoid response element (GRE) linked to a beta-galactosidase reporter gene (3 kb lac Z gene derived from pSV-B-galactosidase). These cells were then further stably transfected with a construct containing full-length human 11βHSD1 enzyme (in pCMVHyg) to create GRE4-βGal/11βHSD1 cells. The principal of the assay is as follows. Cortisone is freely taken up by the cells and is converted to cortisol by 11βHSD1 oxo-reductase activity and cortisol (but not cortisone) binds to and activates the glucocorticoid receptor. Activated glucocorticoid receptor then binds to the GRE and initiates transcription and translation of β-galactosidase. Enzyme activity can then be assayed with high sensitivity by colourimetric assay.
Cells were routinely cultured in DMEM (Invitrogen, Paisley, Renfrewshire, UK) containing 10% foetal calf serum (LabTech), 1% glutamine (Invitrogen), 1% penicillin & streptomycin (Invitrogen), 0.5 mg/ml G418 (Invitrogen) & 0.5 mg/ml hygromycin (Boehringer). Assay media was phenol red free-DMEM containing 1% glutamine, 1% penicillin & streptomycin.
Compounds (1 mM) to be tested were dissolved in dimethyl sulphoxide (DMSO) and serially diluted into assay media containing […]. […]
A cocktail (25 μl) consisting of 10× Z-buffer (600 mM Na2HPO4, 400 mM NaH2PO4.2H2O, 100 mM KCl, 10 mM MgSO4.7H2O, 500 mM β-mercaptoethanol, pH 7.0), SDS (0.2%), chlorophenol red-β-D-galactopyranoside (5 mM, Roche Diagnostics) was added per well and plates incubated at 37° C. for 3-4 hours. β-Galactosidase activity was indicated by a yellow to red colour change (absorbance at 570 nm) measured using a Tecan Spectrafluor Ultra.
The calculation of median inhibitory concentration (IC50) values for the inhibitors was performed using Origin 6.0 (Microcal Software, Northampton Mass. USA). Dose response curves for each inhibitor were plotted as OD units at each inhibitor concentration with relation to a maximum signal (cortisone, no compound) and IC50 values calculated. […]
On the technique in general: Reporter assays use an easily measured gene product as a stand-in for the process of interest.

By IC50 is commonly meant the point on the concentration scale where inhibition reaches its midpoint. Read a high IC50 as a need for much substance.

T1 sequence (P28845 whole entry): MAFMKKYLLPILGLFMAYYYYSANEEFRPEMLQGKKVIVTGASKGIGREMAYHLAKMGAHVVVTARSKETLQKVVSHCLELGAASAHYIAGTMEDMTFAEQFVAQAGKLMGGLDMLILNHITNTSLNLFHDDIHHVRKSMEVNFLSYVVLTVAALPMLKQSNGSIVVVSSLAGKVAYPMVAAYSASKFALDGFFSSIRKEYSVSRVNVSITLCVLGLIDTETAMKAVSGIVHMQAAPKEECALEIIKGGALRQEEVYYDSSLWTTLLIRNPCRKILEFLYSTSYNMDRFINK

`O=C(c1ccc(F)cc1)C1CCN(C(=O)c2ccc(Cl)cc2)C1` (stereo not drawn) [Example 5] came in with a half-maximal inhibitory concentration (IC50) of 75 nM.

With `O=C(c1ccc(F)cc1)C1CCN(C(=O)c2ccccc2Cl)C1` (stereo not drawn) [Example 7], the concentration for half-maximal inhibition (IC50) was determined as 70 nM.

For the compound `O=C(c1ccc(F)cc1)C1CCN(S(=O)(=O)c2ccc(F)cc2)C1` (stereo not drawn) [Example 18], half-maximal inhibition (IC50) was put at 447 nM.
